Literature values, collected in patent publication US6171786A, “Methods for preventing multidrug resistance in cancer cells” (priority 1996, dated 2001).

Tests used:
[1] = clinical trials; Berdel et al., 1988; cited from earlier work
[2] = tested on: hormone-refractory prostate cancer; settings: continuous infusion, peak of 300 μg/mL at end of 14 days; cited from earlier work

SMILES	MTD, oral administration [1] [mg/day]	activity in hormone-refractory prostate cancer [2]
CCCCCCCCCCCCCCCCSCC(COC)COP(=O)([O-])OCC[N+](C)(C)C (centres unmarked) [ilmofosine]	200	–
Cc1ccc(C(=O)Nc2ccc(S(=O)(=O)O)c3cc(S(=O)(=O)O)cc(S(=O)(=O)O)c23)cc1NC(=O)c1cccc(NC(=O)Nc2cccc(C(=O)Nc3cc(C(=O)Nc4ccc(S(=O)(=O)O)c5cc(S(=O)(=O)O)cc(S(=O)(=O)O)c45)ccc3C)c2)c1 [suramin]	–	has shown activity in hormone-refractory prostate cancer
